In patent US20240150333A1, “TAF1 INHIBITORS” (H. LEE MOFFITT CANCER CENTER AND RESEARCH INSTITUTE, INC., priority 2020, published 2024):

Columns and labels:
Type in all cases: binding
[1] = target: T1, TAF1-T (TAF1 tandem bromodomain, BD1 and BD2) (Homo sapiens, UniProt P21675); test: Differential scanning fluorimetry (DSF) thermal shift
T1 construct: tandem bromodomain (residues 1373-1635); His6 (TEV-cleavable) (cleaved yes); host or cells: E. coli BL21 (DE3)
T1 sequence (P21675 1373-1635 isoform P21675-1): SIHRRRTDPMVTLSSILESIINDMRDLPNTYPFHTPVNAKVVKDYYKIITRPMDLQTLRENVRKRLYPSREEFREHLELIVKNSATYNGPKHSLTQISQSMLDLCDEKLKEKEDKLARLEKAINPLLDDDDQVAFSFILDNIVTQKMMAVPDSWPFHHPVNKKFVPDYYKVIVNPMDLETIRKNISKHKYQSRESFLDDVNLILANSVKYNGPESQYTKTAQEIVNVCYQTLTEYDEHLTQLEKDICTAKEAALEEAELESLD

TAF1-2 (TAF1 BD2) [2] = target: T2, TAF1-2 (TAF1 BD2) (Homo sapiens, UniProt P21675); test: as above
T2 construct: BD2 (residues 1501-1635); His6 (TEV-cleavable) (cleaved yes); host or cells: E. coli BL21 (DE3)
T2 sequence (P21675 1501-1635 isoform P21675-1): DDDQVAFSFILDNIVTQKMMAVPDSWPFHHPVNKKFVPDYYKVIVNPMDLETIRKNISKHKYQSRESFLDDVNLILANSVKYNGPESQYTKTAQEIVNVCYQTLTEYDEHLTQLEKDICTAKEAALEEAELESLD

BRD4(2) = target: T3, BRD4(2) (Homo sapiens, UniProt O60885); test: Bromoscan selectivity profiling (DiscoveRx); settings: at 20,000 nM
T3 construct: purchased DiscoveRx
Protocol: (§1) qPCR-based BRD binding assay. Another method for the determination of dissociation constants of BRD-ligand complexes is offered by DiscoveRx Corp. The assay is based on competition between test compound and immobilized high-affinity ligand for binding to the KAc site of BRDs. The amount of TAF1 remaining on an immobilized high-affinity ligand in the presence of ligand is measured using a quantitative real-time polymerase chain reaction (qPCR) method that detects the associated DNA label tagged to the BRD.
(§2) Inhibitor selectivity assays To assess target selectivity, compounds with highest biochemical and cellular activities can be profiled against panels of BRDs and kinases using the services of DiscoveRx and/or Reaction biology, as we have done previously.

CECR2 = target: T4, CECR2 (Homo sapiens, UniProt Q9BXF3); test: Bromoscan selectivity profiling (DiscoveRx); settings: at 20,000 nM
T4 construct: purchased DiscoveRx
Protocol: as §1, §2

ATAD2B = target: T5, ATAD2B (Homo sapiens, UniProt Q9ULI0); test: Bromoscan selectivity profiling (DiscoveRx); settings: at 20,000 nM
T5 construct: 32 bromodomains (by DiscoveRx); purchased DiscoveRx (BromoScan service)
Protocol: as §1, §2

BRD7 = target: T6, BRD7 (Homo sapiens, UniProt Q9NPI1); test: Bromoscan selectivity profiling (DiscoveRx); settings: at 20,000 nM
T6 construct: purchased DiscoveRx
Protocol: as §1, §2

TAF1-2 (TAF1 BD2) [3] = target: T2, TAF1-2 (TAF1 BD2); test: Isothermal titration calorimetry (ITC); settings: Table 3; 288.15 K
[4] = Table 2 (Example 2), 100 μM compound, standard deviation from two experiments
[5] = Table 2 (Example 2), 100 μM compound, standard deviation from two experiments, 100 µM

T5 sequence (Q9ULI0 951-1066 limits assumed): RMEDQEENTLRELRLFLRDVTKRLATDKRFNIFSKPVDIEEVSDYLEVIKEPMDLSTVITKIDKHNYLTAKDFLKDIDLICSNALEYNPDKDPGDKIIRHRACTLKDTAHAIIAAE
T4 sequence (Q9BXF3 434-538 limits assumed): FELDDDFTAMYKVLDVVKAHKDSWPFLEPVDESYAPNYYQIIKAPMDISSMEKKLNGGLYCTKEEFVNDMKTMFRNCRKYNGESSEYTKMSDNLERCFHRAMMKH
T6 sequence (Q9NPI1 131-235 limits assumed): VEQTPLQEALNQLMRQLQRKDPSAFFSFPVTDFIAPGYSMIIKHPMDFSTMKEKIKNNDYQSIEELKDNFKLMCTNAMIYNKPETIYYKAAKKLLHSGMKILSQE

## C[C@@H]1COCCN1c1cc(C2([S@](C)(=N)=O)CC2)nc(-c2cc[nH]c3nccc2-3)n1 [AZD6738]
[1]; Table 1 (Example 1)
  DSF (ΔTm, ° C.) TAF1-T: 5.8 ± 0.5 °C
[1]; [4]
  ΔTm at 100 µM: 3.1 °C
[1]; [5]
  DSF (ΔTm, ° C.) TAF1-T: 3.2 ± 0.1 °C
TAF1-2 (TAF1 BD2) [2]; Table 1 (Example 1)
  DSF (ΔTm, ° C.) TAF1-2: 2.9 ± 0.2 °C
TAF1-2 (TAF1 BD2) [2]; [4]
  ΔTm at 100 µM: 3.2 °C
TAF1-2 (TAF1 BD2) [2]; [5]
  DSF (ΔTm, ° C.) TAF1-2: 3.1 ± 0.1 °C
BRD4(2)
  inhibition at 20 µM: 69%
CECR2
  inhibition at 20 µM: 92.3%
ATAD2B
  inhibition at 20 µM: 0%
BRD7
  inhibition at 20 µM: 14%
TAF1-2 (TAF1 BD2) [3]
  ITC N (stoichiometry), TAF1-2: 0.99
  ITC TΔS, TAF1-2: 3.26 kcal/mol
  ITC ΔH, TAF1-2: -4.36 kcal/mol
